Assay results published in patent EP0139358B1, “N6-substituted diarylalkyl adenosines, processes for their production and pharmaceutical compositions comprising the same” (priority 1983, dated 1985).

Test system: conscious rat
Experiment: Antihypertensive evaluation (AHP3): aortic blood pressure and heart rate
Type: in vivo
Conditions: for Mμ.c. ↓ / HR ↑: conscious rat; for Mμ.c. ↓: decrease in mean arterial blood pressure; for HR ↑: heart rate increase

OC[C@H]1O[C@@H](n2cnc3c(NCC(c4ccccc4)c4ccccc4)ncnc32)[C@H](O)[C@@H]1O [Example 1, N^6-(2,2-Diphenylethyl)adenosine]
Mμ.c. ↓ (1 mg/kg): 16%
HR ↑ (1 mg/kg): <20%
Mμ.c. ↓ (3 mg/kg): 20%
HR ↑ (3 mg/kg): <20%
Mμ.c. ↓ (10 mg/kg): 20%
HR ↑ (10 mg/kg): <20%
Mμ.c. ↓ (30 mg/kg): 35%
HR ↑ (30 mg/kg): <20%
minimal effective dose (Rattus norvegicus, read-out: AHP3 BP LAD): 1 mg/kg
